From PubChem BioAssay AID2077 (NMMLSC, 2009)
Calls of active or inactive are those of the source. The rule behind the calls is not given here.

Molecular target: Bcl-2-like protein 10 (Homo sapiens) (UniProt Q9HD36)
Experiment: Bcl-B Bim peptide interaction hit potency – biochemical, dose response, multiplexed HTS hits, confirmation (AID 2077)
Settings: bead-based flow cytometry, Bim peptide-Bcl-B binding

Sequence of Bcl-2-like protein 10 (Homo sapiens) (Q9HD36 whole entry, looked up): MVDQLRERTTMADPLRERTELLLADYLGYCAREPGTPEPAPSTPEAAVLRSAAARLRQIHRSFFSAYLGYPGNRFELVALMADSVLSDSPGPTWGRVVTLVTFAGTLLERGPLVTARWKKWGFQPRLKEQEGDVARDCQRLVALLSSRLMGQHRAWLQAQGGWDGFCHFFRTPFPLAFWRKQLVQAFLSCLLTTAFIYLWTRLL

Row | EC50 | Compound
1 | 620 nM | COc1ccc(N2C(=O)C(Cl)=C(NC3C(=O)N(c4ccccc4)N(C)C3C)C2=O)cc1 (stereo unspecified)

Same assay, conditions: bead-based flow cytometry, Bim peptide-Bcl-B binding; at 100 µM (top of the series)

Row | Compound | response change, negative = inhibition
2 | Cc1ccc(-c2cc(-c3ccc(F)cc3)c(C#N)c(N)n2)o1 | inactive
3 | COc1cc(N=C2SSNC2Cl)c(OC)cc1Cl (stereo unspecified) | inactive
4 | CNC1CCC(Br)CC(C(=O)/C=C/c2cccc(OC)c2OC)C1=O (stereo unspecified) | inactive
5 | O=[N+]([O-])c1c(NCCCO)cc(Sc2nc3ccccc3s2)c2nonc12 | inactive
6 | CCN1C(=O)/C(=C\C=C2/C=CC=CN2CC)SC1=S | inactive
7 | Cc1ccc(-c2cc(-c3ccc(C)o3)nc(N)c2C#N)cc1 | inactive
8 | CC(=O)OCCCNc1cc(Sc2nc3ccccc3s2)c2nonc2c1[N+](=O)[O-] | inactive
9 | COc1cc(CNc2ccc3[nH]c(=O)[nH]c3c2)cc(Br)c1OCC(=O)NC(C)(C)C | inactive
10 | Cc1nnc(Sc2cc(NCCO)c([N+](=O)[O-])c3nonc23)s1 | inactive
11 | C=CS(=O)(=O)c1sc(Cl)c(N2CCOCC2)c1[N+](=O)[O-] | inactive
12 | CNC(CC(=O)c1ccc([N+](=O)[O-])cc1)C(Cl)(Cl)Cl (stereo unspecified) | inactive
13 | CN(CCO)c1cc(Sc2nc3ccccc3s2)c2nonc2c1[N+](=O)[O-] | inactive

Second part, the compound after the results:

Row | response change, negative = inhibition | Compound
14 | inactive | O=C1c2ccccc2C(=O)N1CN(C(=O)COc1ccc(Cl)cc1Cl)c1cccc(F)c1
15 | inactive | CCN(CC)c1ccc(NC(=O)c2ccccc2F)cc1S(=O)(=O)Nc1ccccc1OC
16 | inactive | COc1ccc(CCNC(=O)c2ccc3nc(-c4ccco4)c(-c4ccco4)nc3c2)cc1OC
17 | inactive | Cc1ccc(-c2nc3c(c(=O)[nH]c(=O)n3Cc3ccccc3)n2C)o1
18 | inactive | O=C(/C=C/c1ccc(-c2ccccc2[N+](=O)[O-])o1)c1ccccc1
19 | inactive | O=C1C(Cl)=C(N2CCN(c3ccccc3[N+](=O)[O-])CC2)C(=O)c2ccccc21
20 | inactive | CCOc1ccccc1CNc1ccc(O)cc1
21 | inactive | CCN(CC)c1ccc(NC(=O)COc2ccccc2C)cc1S(=O)(=O)Nc1ccccc1OC
22 | inactive | Oc1ccc(NCc2ccccc2OCc2ccccc2)cc1
23 | inactive | COc1ccccc1NC1=C(NC(C)=O)C(=O)c2ccccc2C1=O
24 | inactive | Cc1cc2nn(-c3cccc4ccccc34)nc2cc1N
25 | inactive | CCN(CC)C(=O)COC(=O)c1cc(-c2ccco2)nc2ccccc12
26 | inactive | Cc1ccc(-c2cc(C(=O)Nc3nccs3)c3ccccc3n2)o1
